Experimental data reported in patent publication US3973021A, “2-[2-(5-Nitro-2-furyl)vinyl]-4-(phydroxyanilino)quinazoline as a bactericide” (Diamond Shamrock Corporation, priority 1975, dated 1976).

Assays:
Assay type in all cases: in vivo, broiler cross chicks
[1] = Example XI: 4 week chick feeding test, five replicates; conditions: Table V
Excerpt: (§1) This example compares growth promotion activity of the product of Example I with other growth promotants at a concentration of 25 g/T in the Basal Ration described in Example VII. The other growth promotants include the product described in Example I of U.S. Pat. No. 3,542,784 -- Burch and quinoxaline-1,4-dioxide. Day old broiler cross chicks were weight equalized into groups of 8 chicks each, and four replicates of 8 chicks each were fed the experimental rations over a 4 week period.
The growth promotion tests described in Example X were repeated with the exception that fives replicates of 8 chicks each were fed the formulations described in Table V for four weeks.

[2] = Example X: 4 week chick feeding test, 25 g/T; conditions: for growth rate and feed efficiency response (in words): 25 g/T, Table IV
Excerpt: as §1

[3] = Example XII: 4 week chick feeding test, repeat with five replicates (Table VII)
[4] = Example XII: 4 week chick feeding test, first set (Table VI); conditions: Table VI
Excerpt: as §1
The growth promotion tests described in Example X were repeated with the additional testing the products of Examples II and III.

Row | Structure (SMILES) | feed efficiency (in words) [1] | growth rate (in words) [1] | growth rate and feed efficiency response (in words) [2] | Average 4 Week Performance: Feed Efficiency ([3]; 25g/T) | Average 4 Week Performance: Gain ([3]; 25g/T) | Improved Response Over Basal Ration: Feed Efficiency ([3]; 25g/T) | Improved Response Over Basal Ration: Gain ([3]; 25g/T) | growth rate / feed efficiency response (in words) ([3]; Table VII) | growth rate / feed efficiency response (in words) [4] | Average 4 Week Performance: Feed Efficiency ([2]; 25g/T) | Average 4 Week Performance: Gain ([2]; 25g/T) | Improved Response Over Basal Ration: Feed Efficiency ([2]; 25g/T) | Improved Response Over Basal Ration: Gain ([2]; 25g/T)
1 | [O-][n+]1cc[n+]([O-])c2ccccc21 [Quinoxaline-1,4-dioxide, quinoxaline-1,4-dioxide] | improvement in feed efficiency | questionable effect on growth | did not have any apparent effect |  |  |  |  |  |  |  |  |  | 
2 | O=[N+]([O-])c1ccc(-c2nc(Nc3ccc(O)cc3)c3ccccc3n2)o1 [Example III of U.S. 3,542,784 - Burch, 2-(5-nitro-2-furyl)-4-(p-hydroxyaniline)quinazoline, reference compound] |  |  | appeared to give a growth response in this test but with a slight, it any, effect on feed efficiency | 1.737 | 668.1 g | +2.7% | -2.1% | essentially no effect on growth rate or feed efficiency | essentially no effect on growth rate or feed efficiency | 1.525 | 809.5 g | +1.7% | +5.8%
